IC50 and inhibition data for 21 compounds are collected here from patent publication EP4745135A1 (Gluetacs Therapeutics (Shanghai) Co., Ltd., priority 2023, dated 2025).

The assay addresses T1, human Cereblon WT GST-tagged protein (Homo sapiens, UniProt Q96SW2).
T1 construct: purchased CISBIO 64BDCRBNPEH
Briefly: CRBN-binding affinity, HTRF (CEREBLON BINDING kit). The conditions noted are these: for IC50: CRBN binding, HTRF, 3 hours at room temperature, read-out: HTRF IC50; for inhibition at 0.5 µM: read-out: Inhibition Rate at 0.5 µM (%); for inhibition at 2 µM: read-out: Inhibition Rate at 2 µM (%). The method, then:
The CEREBLON BINDING kits (specification: 10,000 tests; product number: Catalog # 64BDCRBNPEH; CISBIO company) was used to determine the CRBN binding ability of the compounds to be tested through a HTRF method (homogeneous time-resolved fluorescence). The specific methods are as follows: • 1. […] Specifically, diluent #9 (1X) solution was used as the diluent, and multiple concentration gradients were set. […] Then, 2.5 µL of human Cereblon WT GST-tagged protein solution was added to each well. Finally, 5 µL of the thoroughly mixed Thalidomide-Re reagent and GST Eu antibody working solution were added to each of the aforementioned wells. […] The blank control wells were sequentially added with 2.5 µL of diluent #9 (1X) solution, 2.5 µL of PROTAC binding buffer, and 5 µL of thoroughly mixed Thalidomide-Re reagent and GST Eu antibody working solution. • 4.

The IC50 is the concentration that inhibits the measured activity by half. In general, inhibition refers to how much of the control response was suppressed.

T1 sequence (Q96SW2 whole entry): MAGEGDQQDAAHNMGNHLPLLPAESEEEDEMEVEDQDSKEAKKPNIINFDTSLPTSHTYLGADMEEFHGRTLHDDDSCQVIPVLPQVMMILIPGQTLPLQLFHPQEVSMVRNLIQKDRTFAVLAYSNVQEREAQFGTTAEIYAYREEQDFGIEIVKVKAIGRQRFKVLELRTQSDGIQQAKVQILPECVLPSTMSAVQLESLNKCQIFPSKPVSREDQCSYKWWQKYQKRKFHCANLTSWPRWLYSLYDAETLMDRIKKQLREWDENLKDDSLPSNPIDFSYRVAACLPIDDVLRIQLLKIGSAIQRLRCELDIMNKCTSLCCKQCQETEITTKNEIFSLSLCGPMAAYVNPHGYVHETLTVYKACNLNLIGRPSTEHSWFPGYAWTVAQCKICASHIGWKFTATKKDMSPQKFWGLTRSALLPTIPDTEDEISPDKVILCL

Consider `O=C1CCC(N2Cc3ccc(CN4CCc5sccc5C4)cc3C2=S)C(=O)N1` (stereo not drawn) [GT-05039, 3-(6-((6,7-dihydrothieno[3,2-c]pyridin-5(4H)-yl)methyl)-1-thioxoisoindolin-2-yl)piperidine-2,6-dione], for which the IC50 was in the range of 100 to 500 nM.
On to `O=C1CCC(N2Cc3ccc(CN4CCN(c5nsc6ccccc56)CC4)cc3C2=S)C(=O)N1` (stereo not drawn) [GT-05040, 3-(6-((4-(benzo[d]isothiazol-3-yl)piperazin-1-yl)methyl)-1-thioxoisoindolin-2-yl)piperidine-2,6-dione], for which the IC50 lay within 100 to 500 nM.
The same measure, in the same setting: as for `O=C1CCC(N2Cc3cc(CN4CCn5c(nnc5C(F)(F)F)C4)ccc3C2=S)C(=O)N1` (stereo not drawn) [GT-05090, 3-(1-thioxo-5-((3-(trifluoromethyl)-5,6-dihydro-[1,2,4]triazolo[4,3-a]pyrazin-7(8H)-yl)methyl)isoindolin-2-yl)piperidine-2,6-dione], the figure is 100 to 500 nM.
Still for that read-out and setting: as for `O=C1CCC(N2Cc3cc(CN4CCN(c5nsc6ccccc56)CC4)ccc3C2=S)C(=O)N1` (stereo not drawn) [GT-05091, 3-(5-((4-(benzo[d]isothiazol-3-yl)piperazin-1-yl)methyl)-1-thioxoisoindolin-2-yl)piperidine-2,6-dione], the figure is < 100 nM; as for `O=C1CCC(N2Cc3cc(CN4CCc5sccc5C4)ccc3C2=S)C(=O)N1` (stereo not drawn) [GT-05093, 3-(5-((6,7-dihydrothieno[3,2-c]pyridin-5(4H)-yl)methyl)-1-thioxoisoindolin-2-yl)piperidine-2,6-dione], < 100 nM; as for `O=C1CCC(N2Cc3c(CO)cccc3C2=S)C(=O)N1` (stereo not drawn) [GT-06981, 3-(4-(hydroxymethyl)-1-thioxoisoindolin-2-yl)piperidine-2,6-dione], < 100 nM.
Take `O=C1CCC(N2Cc3cc(CN4CC5CCC(C4)N5C(c4ccccc4)c4ccccc4)ccc3C2=S)C(=O)N1` (stereo not drawn) [GT-07849, 3-(5-((8-benzhydryl-3,8-diazabicyclo[3.2.1]octan-3-yl)methyl)-1-thioxoisoindolin-2-yl)piperidine-2,6-dione]: the inhibition at 0.5 µM was in the range of 30 to 40% and the inhibition at 2 µM fell in the range of 60 to 80%.
On the same counts, the results for `O=C1CCC(N2Cc3cc(CN4CCN(C(=O)C5=C(c6ccc(F)cc6)CCCC5)CC4)ccc3C2=S)C(=O)N1` (stereo not drawn) [GT-08165, 3-(5-((4-(4'-fluoro-3,4,5,6-tetrahydro-[1,1'-biphenyl]-2-carbonyl)piperazin-1-yl)methyl)-1-thioxoisoindolin-2-yl)piperidine-2,6-dione] are 60 to 80% and 80 to 100%.
On the same counts, the results for `O=C1CCC(N2Cc3c(CN4CCN(C(c5ccccc5)c5ccccn5)CC4)cccc3C2=S)C(=O)N1` (stereo not drawn) [GT-08192, 3-(4-((4-(phenyl(pyridin-2-yl)methyl)piperazin-1-yl)methyl)-1-thioxoisoindolin-2-yl)piperidine-2,6-dione] are 60 to 80% and 80 to 100%.
On the same counts, the results for `O=C1CCC(N2Cc3c(CN4CCN(C(c5ccccn5)c5ccccn5)CC4)cccc3C2=S)C(=O)N1` (stereo not drawn) [GT-08201, 3-(4-((4-(di(pyridin-2-yl)methyl)piperazin-1-yl)methyl)-1-thioxoisoindolin-2-yl)piperidine-2,6-dione] are 40 to 53% and 80 to 100%.
Take `O=C1CCC(N2Cc3c(CN4CC5CCC4CN5C(c4ccccc4)c4ccccc4)cccc3C2=S)C(=O)N1` (stereo not drawn) [GT-08233, 3-(4-((5-benzhydryl-2,5-diazabicyclo[2.2.2]octan-2-yl)methyl)-1-thioxoisoindolin-2-yl)piperidine-2,6-dione]: the inhibition at 0.5 µM was in the range of 53 to 60% and the inhibition at 2 µM was in the range of 80 to 100%.
Regarding `O=C1CCC(N2Cc3c(CN4CC5CCC(C4)N5C(c4ccccc4)c4ccccc4)cccc3C2=S)C(=O)N1` (stereo not drawn) [GT-08234, 3-(4-((8-benzhydryl-3,8-diazabicyclo[3.2.1]octan-3-yl)methyl)-1-thioxoisoindolin-2-yl)piperidine-2,6-dione], the inhibition at 0.5 µM was 40 to 53% and the inhibition at 2 µM lay in the range of 60 to 80%.
On the same counts, the results for `O=C1CCC(N2Cc3cc(CN4CCN(c5ccc(C(F)(F)F)cc5)CC4)ccc3C2=S)C(=O)N1` (stereo not drawn) [GT-08239, 3-(1-thioxo-5-((4-(4-(trifluoromethyl)phenyl)piperazin-1-yl)methyl)isoindolin-2-yl)piperidine-2,6-dione] are 40 to 53% and 80 to 100%.
On to `O=C1CCC(N2Cc3c(CN4CCC(N(c5ccccc5)c5ccccn5)CC4)cccc3C2=S)C(=O)N1` (stereo not drawn) [GT-08243, 3-(4-((4-(phenyl(pyridin-2-yl)amino)piperidin-1-yl)methyl)-1-thioxoisoindolin-2-yl)piperidine-2,6-dione], for which the inhibition at 0.5 µM was 20 to 30% and the inhibition at 2 µM lay in the range of 60 to 80%.
With `O=C1CCC(N2Cc3c(CN4CCN(c5cccc(Br)c5)CC4)cccc3C2=S)C(=O)N1` (stereo not drawn) [GT-08261, 3-(4-((4-(3-bromophenyl)piperazin-1-yl)methyl)-1-thioxoisoindolin-2-yl)piperidine-2,6-dione], the inhibition at 0.5 µM lay in the range of 30 to 40% and the inhibition at 2 µM was 60 to 80%.
As to `O=C1CCC(N2Cc3c(CN4CCN(Cc5ccccc5-c5ccc(Cl)cc5)CC4)cccc3C2=S)C(=O)N1` (stereo not drawn) [GT-08295, 3-(4-((4-((4'-chloro-[1,1'-biphenyl]-2-yl)methyl)piperazin-1-yl)methyl)-1-thioxoisoindolin-2-yl)piperidine-2,6-dione], the inhibition at 0.5 µM lay within 30 to 40% and the inhibition at 2 µM is 60 to 80%.
On the same counts, the results for `CC1(C)CC(c2ccc(Cl)cc2)=C(CN2CCN(Cc3cccc4c3CN(C3CCC(=O)NC3=O)C4=S)CC2)CO1` (stereo not drawn) [GT-08296, 3-(4-((4-((4-(4-chlorophenyl)-6,6-dimethyl-5,6-dihydro-2H-pyran-3-yl)methyl)piperazin-1-yl)methyl)-1-thioxoisoindolin-2-yl)piperidine-2,6-dione] are 40 to 53% and 60 to 80%.
For `O=C1CCC(N2Cc3c(CN4CCN(c5cccs5)CC4)cccc3C2=S)C(=O)N1` (stereo not drawn) [GT-08297, 3-(4-((4-(thiophen-2-yl)piperazin-1-yl)methyl)-1-thioxoisoindolin-2-yl)piperidine-2,6-dione], in that order: 60 to 80% and 80 to 100%.
On the same counts, the results for `O=C1CCC(N2Cc3c(CN4CC=C(c5cccs5)CC4)cccc3C2=S)C(=O)N1` (stereo not drawn) [GT-08299, 3-(4-((4-(thiophen-2-yl)-3,6-dihydropyridin-1 (2H)-yl)methyl)-1-thioxoisoindolin-2-yl)piperidine-2,6-dione] are 53 to 60% and 60 to 80%.
In the case of `Cc1ccc(N2CCN(Cc3ccc4c(c3)CN(C3CCC(=O)NC3=O)C4=S)CC2)c(C)c1` (stereo not drawn) [GT-08614, 3-(5-((4-(2,4-dimethylphenyl)piperazin-1-yl)methyl)-1-thioxoisoindolin-2-yl)piperidine-2,6-dione], the inhibition at 0.5 µM is 30 to 40% and the inhibition at 2 µM is 60 to 80%.
On the same counts, the results for `O=C1CCC(N2Cc3c(CN4CCN(c5ncccc5C(F)(F)F)CC4)cccc3C2=S)C(=O)N1` (stereo not drawn) [GT-08700, 3-(1-thioxo-4-((4-(3-(trifluoromethyl)pyridin-2-yl)piperazin-1-yl)methyl)isoindolin-2-yl)piperidine-2,6-dione] are 53 to 60% and 80 to 100%.
